Source: PubChem BioAssay (NCI)
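Compound exposure: 48 hours, 5 concentrations, 96-well plates. TGI: total growth inhibition.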

How the values were obtained:
Assay in all cases: NCI tumour cell line growth inhibition, 48 h
A549 NSCLC = tested on: A549 NSCLC
KM12 colon = tested on: KM12 colon
RXF 393 renal = tested on: RXF 393 renal
NCI-H226 lung = tested on: NCI-H226 lung
SW-620 colon = tested on: SW-620 colon
SNB-19 CNS = tested on: SNB-19 CNS
OVCAR-5 ovarian = tested on: OVCAR-5 ovarian
DMS 114 small cell lung = tested on: DMS 114 small cell lung
RPMI-8226 leukemia = tested on: RPMI-8226 leukemia
DLD-1 colon = tested on: DLD-1 colon
OVCAR-4 ovarian = tested on: OVCAR-4 ovarian
DMS 273 small cell lung = tested on: DMS 273 small cell lung
NCI/ADR-RES ovarian = tested on: NCI/ADR-RES ovarian
COLO 205 colon = tested on: COLO 205 colon
SF-268 CNS = tested on: SF-268 CNS
HCT-116 colon = tested on: HCT-116 colon
MALME-3M melanoma = tested on: MALME-3M melanoma
MOLT-4 leukemia = tested on: MOLT-4 leukemia
IGROV1 ovarian = tested on: IGROV1 ovarian
EKVX NSCLC = tested on: EKVX NSCLC
XF 498 CNS = tested on: XF 498 CNS
U251 CNS = tested on: U251 CNS
SF-295 CNS = tested on: SF-295 CNS
SN12C renal = tested on: SN12C renal
HCT-15 colon = tested on: HCT-15 colon
UACC-62 melanoma = tested on: UACC-62 melanoma
OVCAR-3 ovarian = tested on: OVCAR-3 ovarian
HT29 colon = tested on: HT29 colon
NCI-H460 lung = tested on: NCI-H460 lung
SK-MEL-2 melanoma = tested on: SK-MEL-2 melanoma
SK-MEL-5 melanoma = tested on: SK-MEL-5 melanoma
KM20L2 colon = tested on: KM20L2 colon
SK-MEL-28 melanoma = tested on: SK-MEL-28 melanoma
MCF7 breast = tested on: MCF7 breast
K-562 leukemia = tested on: K-562 leukemia
HOP-92 NSCLC = tested on: HOP-92 NSCLC
OVCAR-8 ovarian = tested on: OVCAR-8 ovarian
SNB-78 CNS = tested on: SNB-78 CNS
SNB-75 CNS = tested on: SNB-75 CNS
CAKI-1 renal = tested on: CAKI-1 renal
A498 renal = tested on: A498 renal
SK-OV-3 ovarian = tested on: SK-OV-3 ovarian
M19-MEL melanoma = tested on: M19-MEL melanoma
HL-60(TB) leukemia = tested on: HL-60(TB) leukemia
NCI-H23 lung = tested on: NCI-H23 lung
P388 leukemia = tested on: P388 leukemia
NCI-H522 lung = tested on: NCI-H522 lung
CCRF-CEM leukemia = tested on: CCRF-CEM leukemia
HOP-62 NSCLC = tested on: HOP-62 NSCLC
HCC-2998 colon = tested on: HCC-2998 colon
LOX IMVI melanoma = tested on: LOX IMVI melanoma
SF-539 CNS = tested on: SF-539 CNS
UO-31 renal = tested on: UO-31 renal
UACC-257 melanoma = tested on: UACC-257 melanoma
SN12K1 renal = tested on: SN12K1 renal
P388/ADR leukemia = tested on: P388/ADR leukemia

`Cc1c2cc[nH]c(C(F)(F)F)c2cc2c1nc1ccccc12` showed a TGI (A549 NSCLC) greater than 125 µM, a TGI (KM12 colon) greater than 125 µM and a TGI (RXF 393 renal) greater than 125 µM. It also gave a TGI (NCI-H226 lung) greater than 125 µM, a TGI (SW-620 colon) greater than 125 µM and a TGI (SNB-19 CNS) greater than 125 µM. The TGI (OVCAR-5 ovarian) was greater than 125 µM, the TGI (DMS 114 small cell lung) was greater than 125 µM and the TGI (RPMI-8226 leukemia) was greater than 78.9 µM. For the same compound, the TGI (DLD-1 colon) was greater than 125 µM, the TGI (OVCAR-4 ovarian) was greater than 125 µM and the TGI (DMS 273 small cell lung) was greater than 125 µM. It also gave a TGI (NCI/ADR-RES ovarian) greater than 125 µM, a TGI (COLO 205 colon) greater than 125 µM and a TGI (SF-268 CNS) greater than 125 µM. It also gave a TGI (HCT-116 colon) greater than 125 µM, a TGI (MALME-3M melanoma) greater than 125 µM and a TGI (MOLT-4 leukemia) greater than 78.9 µM. For the same compound, the TGI (IGROV1 ovarian) was greater than 125 µM, the TGI (EKVX NSCLC) was greater than 125 µM and the TGI (XF 498 CNS) was greater than 19.8 µM. It also gave a TGI (U251 CNS) greater than 125 µM, a TGI (SF-295 CNS) greater than 125 µM and a TGI (SN12C renal) greater than 125 µM. The TGI (HCT-15 colon) was greater than 125 µM, the TGI (UACC-62 melanoma) was greater than 125 µM and the TGI (OVCAR-3 ovarian) was greater than 125 µM. It also gave a TGI (HT29 colon) greater than 125 µM, a TGI (NCI-H460 lung) greater than 125 µM and a TGI (SK-MEL-2 melanoma) greater than 125 µM. The TGI (SK-MEL-5 melanoma) was greater than 125 µM, the TGI (KM20L2 colon) was greater than 125 µM and the TGI (SK-MEL-28 melanoma) was greater than 125 µM. The TGI (MCF7 breast) was greater than 125 µM, the TGI (K-562 leukemia) was greater than 125 µM and the TGI (HOP-92 NSCLC) was greater than 125 µM. For the same compound, the TGI (OVCAR-8 ovarian) was greater than 125 µM, the TGI (SNB-78 CNS) was greater than 125 µM and the TGI (SNB-75 CNS) was 108 µM. The TGI (CAKI-1 renal) was greater than 125 µM, the TGI (A498 renal) was greater than 113 µM and the TGI (SK-OV-3 ovarian) was greater than 125 µM. It also gave a TGI (M19-MEL melanoma) greater than 125 µM, a TGI (HL-60(TB) leukemia) greater than 125 µM and a TGI (NCI-H23 lung) greater than 125 µM. The TGI (P388 leukemia) was greater than 125 µM, the TGI (NCI-H522 lung) was greater than 125 µM and the TGI (CCRF-CEM leukemia) was greater than 125 µM. For the same compound, the TGI (HOP-62 NSCLC) was greater than 125 µM, the TGI (HCC-2998 colon) was greater than 125 µM and the TGI (LOX IMVI melanoma) was greater than 125 µM. The TGI (SF-539 CNS) was greater than 125 µM, the TGI (UO-31 renal) was greater than 125 µM and the TGI (UACC-257 melanoma) was greater than 125 µM. The TGI (SN12K1 renal) was greater than 125 µM and the TGI (P388/ADR leukemia) was greater than 70.3 µM.
